Calls of active or inactive are those of the source. The rule behind the calls is not given here.
Assays:
PC-9 [1] = test: Cytotoxicity against human PC-9 cells harboring EGFR mutant assessed as inhibition of cell growth; assay type: functional, cell-based
PC-9 [2] = test: Additive cytotoxicity against human PC-9 cells assessed as reduction in cell viability at 34 nM incubated in presence of afatinib; assay type: functional, cell-based
BEAS-2B [3] = test: Cytotoxicity against human BEAS-2B cells assessed as reduction in cell viability at 34 nM; assay type: toxicity, cell-based; conditions: 0.034 µM
BEAS-2B [4] = test: Cytotoxicity against human BEAS-2B cells assessed as reduction in cell viability at 34 nM incubated in presence of afatinib; assay type: toxicity, cell-based; conditions: 0.034 µM
[5] = biological target: Epidermal growth factor receptor (Homo sapiens) (UniProt P00533); test: Inhibition of EGFR (unknown origin) assessed as residual activity relative to control
[6] = biological target: Tyrosine-protein kinase Fer (Homo sapiens) (UniProt P16591); test: Inhibition of FER (unknown origin) at 50 nM
[7] = biological target: ALK tyrosine kinase receptor (Homo sapiens) (UniProt Q9UM73); test: Inhibition of ALK (unknown origin) at 50 nM
[8] = biological target: Serine/threonine-protein kinase pim-1 (Homo sapiens) (UniProt P11309); test: Inhibition of Moloney murine leukemia virus Proviral integration site 1 at 50 nM
PC-9 [9] = test: Cytotoxicity against human PC-9 cells harboring EGFR mutant assessed as inhibition of cell growth incubated for 72 hrs by ATP-based luminescence CellTiter-Glo assay; assay type: functional; conditions: PC-9, 72 h
PC-9 [10] = test: Additive cytotoxicity against human PC-9 cells assessed as reduction in cell viability at 4 nM incubated in presence of afatinib; assay type: functional, cell-based
BEAS-2B [11] = test: Cytotoxicity against human BEAS-2B cells assessed as reduction in cell viability at 4 nM; assay type: toxicity, cell-based; conditions: 0.004 µM
BEAS-2B [12] = test: Cytotoxicity against human BEAS-2B cells assessed as reduction in cell viability at 4 nM incubated in presence of afatinib; assay type: toxicity, cell-based; conditions: 0.004 µM
[13] = biological target: Tyrosine-protein kinase Fer (Homo sapiens) (UniProt P16591); test: Inhibition of FER (unknown origin) at 10 nM
[14] = biological target: ALK tyrosine kinase receptor (Homo sapiens) (UniProt Q9UM73); test: Inhibition of ALK (unknown origin) at 10 nM
[15] = biological target: Serine/threonine-protein kinase pim-1 (Homo sapiens) (UniProt P11309); test: Inhibition of Moloney murine leukemia virus Proviral integration site 1 at 10 nM

ALK tyrosine kinase receptor (Homo sapiens), sequence (Q9UM73 19-1620 limits assumed): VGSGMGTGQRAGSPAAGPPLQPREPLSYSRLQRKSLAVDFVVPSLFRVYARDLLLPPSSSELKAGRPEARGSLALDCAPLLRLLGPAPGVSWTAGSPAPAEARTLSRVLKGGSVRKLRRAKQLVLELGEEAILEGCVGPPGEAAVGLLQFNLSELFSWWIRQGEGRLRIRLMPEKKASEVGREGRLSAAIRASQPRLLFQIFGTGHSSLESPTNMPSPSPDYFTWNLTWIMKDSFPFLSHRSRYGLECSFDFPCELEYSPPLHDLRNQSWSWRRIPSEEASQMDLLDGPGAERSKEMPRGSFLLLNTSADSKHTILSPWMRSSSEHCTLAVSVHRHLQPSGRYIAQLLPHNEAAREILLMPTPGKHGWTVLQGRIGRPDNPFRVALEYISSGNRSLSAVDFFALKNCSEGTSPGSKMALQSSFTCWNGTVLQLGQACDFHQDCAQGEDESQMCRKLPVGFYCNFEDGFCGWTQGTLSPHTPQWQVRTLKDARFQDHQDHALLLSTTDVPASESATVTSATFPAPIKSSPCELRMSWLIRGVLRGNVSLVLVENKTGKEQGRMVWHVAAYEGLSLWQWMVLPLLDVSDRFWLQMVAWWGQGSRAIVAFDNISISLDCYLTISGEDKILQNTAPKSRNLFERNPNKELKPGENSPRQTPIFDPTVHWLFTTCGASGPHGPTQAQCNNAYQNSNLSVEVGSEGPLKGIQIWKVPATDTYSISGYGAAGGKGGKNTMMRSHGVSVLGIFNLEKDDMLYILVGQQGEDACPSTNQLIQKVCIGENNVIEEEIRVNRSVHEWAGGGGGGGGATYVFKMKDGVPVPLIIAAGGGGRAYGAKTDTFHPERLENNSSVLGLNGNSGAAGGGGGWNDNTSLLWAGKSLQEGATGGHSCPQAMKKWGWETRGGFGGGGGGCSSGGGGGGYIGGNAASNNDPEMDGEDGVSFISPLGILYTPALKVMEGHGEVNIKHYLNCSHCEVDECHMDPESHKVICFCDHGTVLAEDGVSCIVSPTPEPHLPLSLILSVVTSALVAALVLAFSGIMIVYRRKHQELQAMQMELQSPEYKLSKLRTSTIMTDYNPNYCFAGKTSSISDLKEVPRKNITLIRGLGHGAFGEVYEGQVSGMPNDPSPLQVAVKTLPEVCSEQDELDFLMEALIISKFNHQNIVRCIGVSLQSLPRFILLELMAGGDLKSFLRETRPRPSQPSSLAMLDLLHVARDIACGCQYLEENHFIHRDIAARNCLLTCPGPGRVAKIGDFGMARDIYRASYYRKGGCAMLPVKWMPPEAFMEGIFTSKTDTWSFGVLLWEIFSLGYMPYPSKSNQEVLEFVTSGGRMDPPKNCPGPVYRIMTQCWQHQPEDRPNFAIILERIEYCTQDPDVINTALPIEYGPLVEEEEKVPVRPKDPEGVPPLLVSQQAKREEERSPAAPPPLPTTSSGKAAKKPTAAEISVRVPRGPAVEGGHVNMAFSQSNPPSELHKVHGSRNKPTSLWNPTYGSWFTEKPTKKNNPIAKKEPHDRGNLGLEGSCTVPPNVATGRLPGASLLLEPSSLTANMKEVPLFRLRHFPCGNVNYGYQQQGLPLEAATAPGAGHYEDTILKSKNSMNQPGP
Epidermal growth factor receptor (Homo sapiens), sequence (P00533 whole entry): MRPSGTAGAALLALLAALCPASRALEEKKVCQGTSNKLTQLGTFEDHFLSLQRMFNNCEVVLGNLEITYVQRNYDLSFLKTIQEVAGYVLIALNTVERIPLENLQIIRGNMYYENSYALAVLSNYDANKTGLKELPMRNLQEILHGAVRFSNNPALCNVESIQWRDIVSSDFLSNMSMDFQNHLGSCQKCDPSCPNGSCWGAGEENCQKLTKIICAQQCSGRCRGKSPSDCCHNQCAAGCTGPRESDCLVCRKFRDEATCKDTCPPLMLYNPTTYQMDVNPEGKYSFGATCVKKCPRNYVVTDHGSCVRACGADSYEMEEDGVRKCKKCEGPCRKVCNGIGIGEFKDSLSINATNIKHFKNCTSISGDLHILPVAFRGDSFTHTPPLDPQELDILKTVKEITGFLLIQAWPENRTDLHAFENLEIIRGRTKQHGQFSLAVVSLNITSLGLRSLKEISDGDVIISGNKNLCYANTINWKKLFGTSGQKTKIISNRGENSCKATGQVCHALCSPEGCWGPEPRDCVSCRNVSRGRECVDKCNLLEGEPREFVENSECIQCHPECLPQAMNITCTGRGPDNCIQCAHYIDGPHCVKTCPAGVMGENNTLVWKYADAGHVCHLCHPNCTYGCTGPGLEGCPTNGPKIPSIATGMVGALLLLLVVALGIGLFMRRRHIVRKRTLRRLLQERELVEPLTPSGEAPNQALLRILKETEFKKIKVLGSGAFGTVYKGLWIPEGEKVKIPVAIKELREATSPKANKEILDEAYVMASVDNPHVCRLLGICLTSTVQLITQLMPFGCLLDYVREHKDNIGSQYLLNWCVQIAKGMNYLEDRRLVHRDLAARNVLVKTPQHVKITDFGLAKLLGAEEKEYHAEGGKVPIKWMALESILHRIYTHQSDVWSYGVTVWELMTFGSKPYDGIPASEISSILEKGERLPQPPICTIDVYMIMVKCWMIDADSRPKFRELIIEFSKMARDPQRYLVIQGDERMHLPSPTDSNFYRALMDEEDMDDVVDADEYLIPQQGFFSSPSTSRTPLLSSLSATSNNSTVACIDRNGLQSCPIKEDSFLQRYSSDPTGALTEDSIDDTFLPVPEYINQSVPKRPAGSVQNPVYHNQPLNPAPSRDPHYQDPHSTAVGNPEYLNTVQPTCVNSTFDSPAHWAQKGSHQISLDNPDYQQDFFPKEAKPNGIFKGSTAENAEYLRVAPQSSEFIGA
Tyrosine-protein kinase Fer (Homo sapiens), sequence (P16591 whole entry, looked up): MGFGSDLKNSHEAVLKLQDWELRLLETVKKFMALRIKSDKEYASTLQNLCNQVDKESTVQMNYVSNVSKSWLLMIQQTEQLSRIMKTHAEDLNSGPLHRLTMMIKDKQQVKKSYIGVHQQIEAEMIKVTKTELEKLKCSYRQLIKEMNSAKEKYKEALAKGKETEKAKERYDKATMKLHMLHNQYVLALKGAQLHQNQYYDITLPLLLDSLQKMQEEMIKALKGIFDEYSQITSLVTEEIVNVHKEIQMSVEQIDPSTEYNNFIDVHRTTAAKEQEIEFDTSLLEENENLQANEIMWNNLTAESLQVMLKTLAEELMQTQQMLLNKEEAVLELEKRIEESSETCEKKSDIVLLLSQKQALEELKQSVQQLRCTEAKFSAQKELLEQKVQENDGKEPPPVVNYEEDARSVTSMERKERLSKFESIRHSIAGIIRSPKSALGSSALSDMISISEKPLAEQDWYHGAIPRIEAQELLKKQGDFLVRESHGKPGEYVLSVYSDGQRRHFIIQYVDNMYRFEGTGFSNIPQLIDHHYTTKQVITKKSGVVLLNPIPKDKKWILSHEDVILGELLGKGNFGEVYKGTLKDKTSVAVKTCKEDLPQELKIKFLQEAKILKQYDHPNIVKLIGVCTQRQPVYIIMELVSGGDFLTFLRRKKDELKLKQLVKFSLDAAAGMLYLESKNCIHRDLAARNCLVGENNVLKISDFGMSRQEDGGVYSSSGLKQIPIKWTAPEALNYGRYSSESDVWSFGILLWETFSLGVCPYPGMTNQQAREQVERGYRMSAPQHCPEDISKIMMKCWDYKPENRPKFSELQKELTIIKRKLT

Fc1ccc2ncnc(NCCc3ccccc3Br)c2c1 was tested, and the IC50 (PC-9 [1]) was 892 nM.

Compound COc1ccccc1-c1ccc(CCNc2ncnc3ccc(F)cc23)cc1 has an IC50 (PC-9 [1]) of 105 nM.

Fc1ccc2ncnc(NCCc3ccc(-c4ccncc4)cc3)c2c1 was tested, and the IC50 (PC-9 [1]) was 408 nM.

For Fc1ccc(-c2ccc(CCNc3ncnc4ccc(F)cc34)cc2)c(F)c1, the IC50 (PC-9 [1]) was 34 nM, the Activity (PC-9 [2]) was “Active” and the Activity (BEAS-2B [3]) was “Non-Toxic”. For the same compound, the Activity (BEAS-2B [4]) was “Non-Toxic”, the Activity [5] was over 90% and the inhibition [6] was “Active”. The inhibition [7] was “Active” and the inhibition [8] was “Active”.

Fc1ccc2ncnc(NCCc3ccc(Br)cc3)c2c1 showed an IC50 (PC-9 [9]) of 207 nM.

For CC(C)(C)Oc1ccc(-c2ccc(CCNc3ncnc4ccc(F)cc34)cc2)cc1, the IC50 (PC-9 [1]) was 1700 nM.

With Fc1ccc2ncnc(NCCc3ccc(-c4ccccc4)cc3)c2c1 the IC50 (PC-9 [1]) was 77 nM.

CC(C)(C)c1ccc(CCNc2ncnc3ccc(F)cc23)cc1 showed an IC50 (PC-9 [1]) of 45 nM.

With Fc1ccc2ncnc(NCCc3ccc(-c4ccco4)cc3)c2c1 the IC50 (PC-9 [1]) was 636 nM.

For Fc1ccc2ncnc(NC3CCc4cc(Br)ccc4C3)c2c1 (centres undefined), the IC50 (PC-9 [1]) was 718 nM.

Fc1ccc2ncnc(NCCc3cccc(-c4ccccc4)c3)c2c1 gave an IC50 (PC-9 [1]) of 668 nM.

For Fc1ccc2ncnc(NCCc3ccc(-c4ccc5ccccc5c4)cc3)c2c1, the IC50 (PC-9 [1]) was 101 nM.

With Fc1ccc2ncnc(NCCc3ccc(-c4ccc(F)c(F)c4)cc3)c2c1 the IC50 (PC-9 [1]) was 138 nM.

Compound COc1cccc(-c2ccc(CCNc3ncnc4ccc(F)cc34)cc2)c1 has an IC50 (PC-9 [1]) of 67 nM.

In the case of Fc1ccc2ncnc(NCCc3ccc(-c4ccc5oc6ccccc6c5c4)cc3)c2c1, the IC50 (PC-9 [1]) is reported as 79 nM.

Work on Fc1ccc2ncnc(NCCc3ccc(-c4ccc5c(c4)OCCO5)cc3)c2c1 yielded an IC50 (PC-9 [1]) of 69 nM.

Fc1ccc2ncnc(NCCc3ccc(-c4cccc5ccccc45)cc3)c2c1 was tested, and the IC50 (PC-9 [1]) was 291 nM.

Work on Fc1ccc2ncnc(NCCc3ccc(-c4ccoc4)cc3)c2c1 yielded an IC50 (PC-9 [1]) of 288 nM.

Compound CN(C)C/C=C/C(=O)Nc1cc2c(Nc3ccc(F)c(Cl)c3)ncnc2cc1O[C@H]1CCOC1 [AFATINIB] has an IC50 (PC-9 [1]) of 5 nM.

Work on Fc1ccc2ncnc(NCCc3ccc(-c4ccccc4F)cc3)c2c1 yielded an IC50 (PC-9 [1]) of 66 nM.

In the case of Fc1ccc2ncnc(NCCc3ccc(-c4ccc(Oc5ccccc5)cc4)cc3)c2c1, the IC50 (PC-9 [1]) is reported as 280 nM.

Fc1ccc2ncnc(NCCc3ccc(Oc4ccccc4)cc3)c2c1 was tested, and the IC50 (PC-9 [1]) was 14 nM.

CC(C)(C)c1ccc(-c2ccc(CCNc3ncnc4ccc(F)cc34)cc2)cc1 showed an IC50 (PC-9 [1]) of 363 nM.

With Cc1ccc(-c2ccc(CCNc3ncnc4ccc(F)cc34)cc2)cc1 the IC50 (PC-9 [1]) was 49 nM.

With Fc1ccc2ncnc(NCCc3ccc(-c4cccnc4)cc3)c2c1 the IC50 (PC-9 [1]) was 1040 nM.

Fc1ccc2ncnc(NCCc3cccc(Br)c3)c2c1 showed an IC50 (PC-9 [1]) of 685 nM.

For Fc1ccc(Oc2ccc(CCNc3ncnc4ccc(F)cc34)cc2)cc1, the IC50 (PC-9 [1]) was 4 nM, the Activity (PC-9 [10]) was “Active” and the Activity (BEAS-2B [11]) was “Non-Toxic”. For the same compound, the Activity (BEAS-2B [12]) was “Non-Toxic”, the Activity [5] was over 90% and the inhibition [13] was “Active”. The inhibition [14] was “Active” and the inhibition [15] was “Active”.

Compound Fc1ccc2ncnc(NCCc3ccc(-c4ccc(C(F)(F)F)cc4)cc3)c2c1 has an IC50 (PC-9 [1]) of 131 nM.

With Fc1ccc2ncnc(NCCc3ccc(-c4ccc(Cl)cc4)cc3)c2c1 the IC50 (PC-9 [1]) was 44 nM.

For Fc1ccc(-c2ccc(CCNc3ncnc4ccc(F)cc34)cc2)cc1, the IC50 (PC-9 [1]) was 160 nM.

COc1ccc(Oc2ccc(CCNc3ncnc4ccc(F)cc34)cc2)cc1 was tested, and the IC50 (PC-9 [1]) was 7 nM.

Work on Fc1ccc(CNc2ncnc3ccc(F)cc23)cc1 yielded an IC50 (PC-9 [9]) of over 5000 nM.

Fc1ccc2ncnc(NCCc3ccccc3-c3ccccc3)c2c1 was tested, and the IC50 (PC-9 [1]) was over 5000 nM.

Fc1ccc2ncnc(NCCc3ccc(-c4cccc(F)c4F)cc3)c2c1 gave an IC50 (PC-9 [1]) of 76 nM.

Fc1ccc2ncnc(NCCc3ccc(OCc4ccccc4)cc3)c2c1 showed an IC50 (PC-9 [1]) of 30 nM.

With Fc1ccc2ncnc(NCCc3ccc(I)cc3)c2c1 the IC50 (PC-9 [1]) was 261 nM.

In the case of Fc1ccc2ncnc(Nc3ccc4cc(Br)ccc4c3)c2c1, the IC50 (PC-9 [1]) is reported as over 5000 nM.

Fc1cccc(-c2ccc(CCNc3ncnc4ccc(F)cc34)cc2)c1 was tested, and the IC50 (PC-9 [1]) was 618 nM.

In the case of COc1ccc(-c2ccc(CCNc3ncnc4ccc(F)cc34)cc2)cc1, the IC50 (PC-9 [1]) is reported as 69 nM.

For Fc1ccc2ncnc(NCCc3ccc4ccccc4c3)c2c1, the IC50 (PC-9 [1]) was 64 nM.
